Values belong to the compound of their own block, whether it stands above or below them.
Key:
[1] = target: Bifunctional peptidase and (3S)-lysyl hydroxylase JMJD7 (Homo sapiens, UniProt P0C870); assay: Inhibition of N-terminal His-tagged human JMJD7 (1 to 316 residues) expressed in Escherichia coli BL21 (DE3) luciferase based succinate-gloTM JmjC demethylase/hydroxylase assay
SH-SY5Y = assay: Cytotoxicity against human SH-SY5Y cells assessed as growth inhibition measured after 72 hrs by MTT assay
BJ = assay: Cytotoxicity against human BJ cells assessed as growth inhibition measured after 72 hrs by MTT assay
SK-BR-3 = assay: Cytotoxicity against human SK-BR-3 cells assessed as growth inhibition measured after 72 hrs by MTT assay; details: SK-BR-3, 72 h
HeLa = assay: Cytotoxicity against human HeLa cells assessed as growth inhibition measured after 72 hrs by MTT assay
Jurkat = assay: Cytotoxicity against human Jurkat cells assessed as growth inhibition measured after 72 hrs by MTT assay
T47D = assay: Cytotoxicity against human T47D cells assessed as growth inhibition measured after 72 hrs by MTT assay

Chain of Bifunctional peptidase and (3S)-lysyl hydroxylase JMJD7 (P0C870 whole entry, the tested form may be a part): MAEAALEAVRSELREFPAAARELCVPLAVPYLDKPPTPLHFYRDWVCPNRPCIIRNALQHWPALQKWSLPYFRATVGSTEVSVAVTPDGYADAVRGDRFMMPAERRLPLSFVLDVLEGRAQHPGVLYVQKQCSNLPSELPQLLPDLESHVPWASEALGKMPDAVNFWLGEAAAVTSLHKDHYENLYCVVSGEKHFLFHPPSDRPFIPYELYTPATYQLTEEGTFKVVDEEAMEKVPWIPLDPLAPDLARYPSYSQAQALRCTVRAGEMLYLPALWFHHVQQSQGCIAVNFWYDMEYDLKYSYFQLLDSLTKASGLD

Compound: CCCNC(=O)c1ccc(-c2nc3ccccc3s2)s1
IC50 [1]: 11 µM

Compound: Oc1c(C(Nc2ccccn2)c2ccccc2)ccc2cccnc12 (stereo not given)
IC50 [1]: 31.6 µM

Compound: O=C(Oc1ccc([N+](=O)[O-])c2cccnc12)c1ccc(Cl)cc1Cl
IC50 (SH-SY5Y): > 100 µM
IC50 (BJ): > 100 µM
IC50 (SK-BR-3): 13.3 µM
IC50 (HeLa): 16.1 µM
IC50 (Jurkat): 15 µM
IC50 (T47D): 9.4 µM

Second part, the compound after the results:

IC50 [1]: 33.2 µM
Compound: COc1ccc(CCC(=O)Nc2ccccc2C(=O)O)cc1OC

IC50 [1]: 7.16 µM
Compound: COc1cccc(-c2ccc(NC(=O)C3=C(C(=O)O)CCC3)c(F)c2)c1 [VIDOFLUDIMUS]

From ChEMBL document CHEMBL4819143, “Discovery of JMJD7 inhibitors with the aid of virtual screening and bioactivity evaluation” (Bioorg Med Chem Lett, 2021)
